As a reminder, the zone of inhibition is the extent of the growth-free halo in a diffusion test.

The results in this text go back to US10266544B2, “Aryl substituted aminomethyl spectinomycin analogs as antibacterial agents” (ST. JUDE CHILDREN'S RESEARCH HOSPITAL, INC., priority 2013, dated 2019).

Converted amounts (≈) assume the structure as drawn. Where a name gives a salt, the structure may show the parent alone. Read-outs that look alike come from different tables or passages of the source.

What all share (format): cell-based
Assay [1] concerns Escherichia coli (ATCC 700926). Briefly: MIC determination, microbroth dilution.
The next assay concerns E. coli K12 ΔtolC. Description: microbe, parasite or virus in culture. The following applies: Escherichia coli, read-out: MIC E.c. Δtolc.
For assay [2], the system named is Klebsiella pneumoniae (ATCC 33495). Briefly: MIC determination, microbroth dilution. The conditions noted are these: ATCC33495.
Assay [3] has as its system M. tuberculosis clinical isolates. Briefly: microbe, parasite or virus in culture. The conditions noted are these: Mycobacterium tuberculosis, H37RV, read-out: MIC H37Rv.
Assay [4] concerns Legionella pneumophila (ATCC 33153). Briefly: microbe, parasite or virus in culture. The conditions noted are these: ATCC33153, 72 h, read-out: Zone of inhibition L.p.
Assay [5] relates to Proteus mirabilis (ATCC 25933). Description: MIC determination, microbroth dilution. The conditions noted are these: ATCC25933.
Assay [6] deals with Bacillus anthracis, Sterne 34F2. Description: microbe, parasite or virus in culture. The following applies: STERNE34F2, read-out: MIC B.a.
Assay [7] has as its system Burkholderia cepacia (ATCC 25416). Briefly: MIC determination, microbroth dilution. The following applies: Burkholderia cepacia.
Assay [8] deals with Enterococcus faecalis (ATCC 33186). Briefly: MIC determination, microbroth dilution. In general terms: Dilution methods test growth across graded concentrations, often in twofold steps.
Assay [9] relates to Stenotrophomonas maltophilia (ATCC 13637). Description: MIC determination, microbroth dilution. The following applies: ATCC13637; Stenotrophomonas maltophilia (ATCC 13637); read-out: MIC S.m.
The subject of assay [10] is Pseudomonas aeruginosa (PA01). Briefly: MIC determination, microbroth dilution.
The test system of assay [11] is Streptococcus pyogenes (ATCC 700294). Description: MIC determination, microbroth dilution. The following applies: ATCC700294; Streptococcus pyogenes (ATCC 700294); read-out: MIC S. py.
Assay [12] has as its system Staphylococcus aureus (ATCC 29213). Briefly: MIC determination, microbroth dilution.
The subject of assay [13] is Streptococcus pneumoniae (R6). Briefly: MIC determination, microbroth dilution. The conditions noted are these: Streptococcus pneumoniae (R6); read-out: MIC S. pn.
The test system of assay [14] is Neisseria gonorrhoeae (ATCC 49226). Description: Agar MIC determination (Alamar Blue). The conditions noted are these: ATCC49226, agar MIC, read-out: MIC N.g. In general terms: Alamar Blue is a resazurin reagent that responds to reducing activity.
The test system of assay [15] is MRSA, Staphylococcus aureus (NRS70). Description: MIC determination, microbroth dilution. The conditions noted are these: read-out: MIC MRSA.
Assay [16] deals with acinetobacter baumannii (ATCC 19606). Briefly: MIC determination, microbroth dilution. The following applies: ATCC19606.
The test system of assay [17] is Proteus vulgaris (ATCC 33420). Briefly: MIC determination, microbroth dilution. The conditions noted are these: ATCC33420.
In assay [18] the test system is Bacillus subtilis (ATCC 23857). Description: MIC determination, microbroth dilution. The conditions noted are these: ATCC23857; Bacillus subtilis (ATCC 23857); read-out: MIC B.s.
The next assay has as its system Bacillus anthracis. Description: microbe, parasite or virus in culture. The conditions noted are these: read-out: MIC B.a.
Assay [19] has as its system Neisseria meningitides (ATCC 13077). Description: Disc diffusion assay. The conditions noted are these: ATCC13077, 4 μg per disc, read-out: Zone of inhibition N.m.
Assay [20] has as its system Haemophilus influenza (ATCC 49247). Briefly: microbe, parasite or virus in culture. The conditions noted are these: ATCC49247; Haemophilus influenza; 4 μg per disc; range of at least two experiments; read-out: Zone of inhibition H.i.
The test system of assay [21] is Neisseria gonorrhoeae (ATCC 49226). Briefly: Disc diffusion assay. The conditions noted are these: ATCC49226, 4 μg per disc, read-out: Zone of inhibition N.g. On the technique in general: A growth-free zone around the sample is the usual read-out of agar diffusion tests.
The next assay concerns Listeria monocytogenes. Briefly: MIC determination (Table 6).
The subject of a further assay is Moraxella catarrhalis. Description: MIC determination (Table 6).
Where [22] appears, read: ATCC25416, read-out: MIC B.c., Burkholderia cepacia (ATCC 25416).
[23] abbreviates: ATCC33186, Enterococcus faecalis (ATCC 33186), read-out: MIC E.f.
The mark [24] stands for this setting: ATCC29213, Staphylococcus aureus (ATCC 29213), read-out: MIC S.a.
[25] abbreviates: ATCC700926, Escherichia coli (ATCC 700926), read-out: MIC E.c.
The mark [26] stands for this setting: ATCC25416, read-out: MIC B.c., Burkholderia cepacia, Table 6.

Consider `CN[C@@H]1[C@H](O)[C@H](NC)[C@H]2O[C@]3(O)[C@H](O[C@@H]2[C@H]1O)O[C@H](C)C[C@]3(O)CNCc1ccc(OC(F)(F)F)cc1` (stereo in doubt) [compound 26, 3′-(S)-3′-[(4-trifluoromethoxyl)benzylaminomethyl)]dihydrospectinomycin Trihydrochloride], for which the MIC in [1] (Escherichia coli, ATCC700926, read-out: MIC E.c.) is 50 µg/mL; in the assay on E. coli K12 ΔtolC, 6.3 µg/mL; in [2], 100 µg/mL; in assay [3], 100 µg/mL; in assay [5], over 200 µg/mL; in [6] it was at least 200 µg/mL. For the same compound, the MIC in assay [7] (setting [22]) is over 200 µg/mL; in assay [8] (setting [23]), over 200 µg/mL; in assay [9], 50 µg/mL; in [10] it was over 200 µg/mL; in assay [11] it was over 200 µg/mL; in assay [12] (setting [24]) it was at least 200 µg/mL. Besides, the MIC in [13] is over 200 µg/mL; in [14] it was 50 to 100 µg/mL; in [15] (Staphylococcus aureus (NRS70)), over 200 µg/mL; in assay [16] it was 50 to 100 µg/mL; in assay [17], over 200 µg/mL; in [18], 100 to 200 µg/mL. Also, in [4], the zone of inhibition at 4 µg/disc turned out to be 8 mm.
On to `CN[C@@H]1[C@H](O)[C@H](NC)[C@H]2O[C@]3(O)[C@H](O[C@@H]2[C@H]1O)O[C@H](C)C[C@@]3(O)CNCc1cnc[nH]1` [compound 20], for which the MIC in the assay with Bacillus anthracis is 50 to 100 µg/mL (≈ 113 to 225 µM); in assay [1] (setting [25]) it was 50 µg/mL (≈ 113 µM); in the assay on E. coli K12 ΔtolC, 25 µg/mL (≈ 56.4 µM); in assay [2], 50 to 100 µg/mL (≈ 113 to 225 µM); in assay [3] it was 6.3 µg/mL (≈ 14.2 µM); in [5], 200 µg/mL (≈ 451 µM). Also, the MIC in assay [6] was 50 to 100 µg/mL (≈ 113 to 225 µM); in assay [7] (setting [22]) it was 100 to 200 µg/mL (≈ 225 to 451 µM); in [7] (setting [26]) it was 100 to 200 µg/mL (≈ 225 to 451 µM); in assay [8] (setting [23]), 100 µg/mL (≈ 225 µM); in [9], 3.1 to 6.3 µg/mL (≈ 6.99 to 14.2 µM); in [10], 200 µg/mL (≈ 451 µM). In addition, the MIC was 50 µg/mL (≈ 113 µM) in [11]; 200 µg/mL (≈ 451 µM) in assay [12] (setting [24]); 25 to 50 µg/mL (≈ 56.4 to 113 µM) in [13]; 100 to 200 µg/mL (≈ 225 to 451 µM) in assay [14]; at least 200 µg/mL in assay [15] (Staphylococcus aureus (NRS70)); over 200 µg/mL in assay [16]. Besides, the MIC in [17] was 100 to 200 µg/mL (≈ 225 to 451 µM); in [18], 25 µg/mL (≈ 56.4 µM).
With `CN[C@@H]1[C@H](O)[C@H](NC)[C@H]2O[C@]3(O)[C@H](O[C@@H]2[C@H]1O)O[C@H](C)C[C@@]3(O)CNCc1ccc(C(C)C)cc1` [compound 23, 3′-(R)-3′-[(4-isopropyl)benzylaminomethyl)]dihydrospectinomycin Trihydrochloride], the MIC in the assay with Bacillus anthracis is 12.5 µg/mL; in assay [1] (setting [25]) it was 12.5 µg/mL; in the assay on E. coli K12 ΔtolC, 3.1 to 6.3 µg/mL; in assay [2], 50 µg/mL; in assay [3] it was 25 µg/mL; in [5] it was over 200 µg/mL. For the same compound, the MIC is 12.5 µg/mL in assay [6]; over 200 µg/mL in [7] (setting [22]); over 200 µg/mL in [7] (setting [26]); 12.5 µg/mL in [8] (Enterococcus faecalis, ATCC33186, read-out: MIC E.f.); 6.3 µg/mL in assay [9]; 6.3 µg/mL against Listeria monocytogenes. Moreover, the MIC is 25 µg/mL in assay [10]; 1.6 µg/mL in assay [11]; 12.5 to 25 µg/mL in assay [12] (Staphylococcus aureus, ATCC29213, read-out: MIC S.a.); 1.6 to 3.1 µg/mL in assay [13]; 12.5 µg/mL in [15] (Staphylococcus aureus); 3.1 to 6.3 µg/mL with Moraxella catarrhalis. The values for the MIC in [16], in [17] and in [18] were 50 µg/mL, over 200 µg/mL and 6.3 µg/mL, respectively. Further, the zone of inhibition at 4 µg/disc was 17 mm in assay [19], 15 mm in assay [20], 12 mm in assay [4] and 18 mm in assay [21].
Consider `CN[C@@H]1[C@H](O)[C@H](NC)[C@H]2O[C@]3(O)[C@H](O[C@@H]2[C@H]1O)O[C@H](C)C[C@@]3(O)CNCc1ccc(C)cc1C` [compound 24, 3′-(R)-3′-[(2,4-dimethyl)benzylaminomethyl)]dihydrospectinomycin Trihydrochloride], for which the MIC is 50 µg/mL with Bacillus anthracis; 25 µg/mL in assay [1] (setting [25]); 12.5 to 25 µg/mL with E. coli K12 ΔtolC; 100 to 200 µg/mL in assay [2]; 25 µg/mL in assay [3]; over 200 µg/mL in [5]. For the same compound, the MIC was 50 µg/mL in assay [6]; over 200 µg/mL in [7] (setting [22]); over 200 µg/mL in assay [7] (setting [26]); 12.5 µg/mL in [8] (setting [23]); 25 to 50 µg/mL in [9]; 12.5 µg/mL in the assay with Listeria monocytogenes. Moreover, the MIC is 50 µg/mL in assay [10]; 1.6 µg/mL in assay [11]; 6.3 to 12.5 µg/mL in assay [12] (setting [24]); 3.1 µg/mL in assay [13]; 50 µg/mL in [15] (Staphylococcus aureus (NRS70)); 1.6 µg/mL against Moraxella catarrhalis. For the same compound, the results for the MIC in assay [16], in [17] and in assay [18] were 200 µg/mL, 200 µg/mL and 12.5 µg/mL, respectively. The zone of inhibition at 4 µg/disc in [19] came to 17 mm; in assay [20], 14 mm; in assay [4] it was 18 mm; in assay [21], 18 mm.
As to `CN[C@@H]1[C@H](O)[C@H](NC)[C@H]2O[C@]3(O)[C@H](O[C@@H]2[C@H]1O)O[C@H](C)C[C@]3(O)CNCc1ccc(F)cc1` [compound 28, 3′-(S)-3′-[(4-fluoro)benzylaminomethyl)]dihydrospectinomycin Trihydrochloride], the MIC was over 200 µg/mL in assay [1] (setting [25]); at least 200 µg/mL with E. coli K12 ΔtolC; over 200 µg/mL in assay [2]; 200 µg/mL in [3]; over 200 µg/mL in assay [6]; over 200 µg/mL in assay [7] (setting [22]). Besides, the MIC in [8] (setting [23]) is over 200 µg/mL; in assay [11], 100 to 200 µg/mL; in assay [12] (setting [24]), over 200 µg/mL; in assay [13], at least 200 µg/mL; in assay [14] it was 200 µg/mL; in [15] (Staphylococcus aureus (NRS70)) it was over 200 µg/mL. Also, the MIC in assay [16] was over 200 µg/mL. In addition, the zone of inhibition at 4 µg/disc in assay [19], in [20] and in assay [4] was 0 mm each time.
Regarding `CN[C@@H]1[C@H](O)[C@H](NC)[C@H]2O[C@]3(O)[C@H](O[C@@H]2[C@H]1O)O[C@H](C)C[C@@]3(O)CNCc1nc2ccccc2s1` [compound 34, 3′-(A′)-3′-(benzo[d]thiazolylmethyl)aminomethyl dihydrospectinomycin Trihydrobromide], the zone of inhibition at 4 µg/disc was found to be 12 mm in assay [19], 7 mm in [20] and 8 mm in assay [21]. In addition, the MIC in assay [2] was 100 to 200 µg/mL; in assay [3], 12.5 µg/mL; in assay [5] it was over 200 µg/mL; in [6], 50 µg/mL; in [7] (setting [22]), over 200 µg/mL; in assay [8] (setting [23]), 25 µg/mL. Besides, the MIC in [9] is 100 µg/mL; in assay [10], over 200 µg/mL; in assay [11] it was 3.1 µg/mL; in [12] (setting [24]), 50 to 100 µg/mL; in assay [13] it was 6.3 µg/mL; in assay [14], 100 µg/mL. The MIC in assay [15] (Staphylococcus aureus (NRS70)) was 100 to 200 µg/mL; in assay [16], over 200 µg/mL; in assay [17], over 200 µg/mL; in [18] it was 50 to 100 µg/mL.
